Results on one compound are retold here after PMC4000049, “Genome segment 5 of Antheraea mylitta cytoplasmic polyhedrosis virus encodes a bona fide guanylyltransferase” (Virology Journal, 2014).

The subject of the experiment is T1, p65 (AmCPV S5-encoded guanylyltransferase).
T1 construct: entire S5 ORF (nt 266 to 2086; 606 residues, ~65 kDa), His-tagged in pQE-30, E. coli M15, Ni-NTA
The experiment can be described thus: pyrophosphatase-coupled malachite green assay of capping, replot of double-reciprocal plots. Particulars: co-substrate 5'-diphosphate-ended viral RNA (50 to 150 nM), 5 mM MgCl2, 5 mM DTT, 50 mM Tris-HCl pH 7.5, 25°C; ping-pong; covalent GMP intermediate. The format is biochemical, Antheraea mylitta cypovirus 4.

In the case of `Nc1nc2c(ncn2[C@@H]2O[C@H](COP(=O)(O)OP(=O)(O)OP(=O)(O)O)[C@@H](O)[C@H]2O)c(=O)[nH]1` [GTP], the Km stood at 34.2 µM.

The term Km denotes the substrate concentration at which the rate is half of its maximum.
